# Patent US20230374034A1, “NOVEL BICYCLIC COMPOUNDS” (PRISM BIOLAB CO., LTD., priority 2020, published 2023)
# Test system: NICD (Notch intracellular domain) CSL-bla reporter in HeLa cells
# Assay: Notch assay (CellSensor T-REx NICD CSL-bla HeLa beta-lactamase reporter; Method 1 / Method 2)
# Assay type: cell-based
# Settings: Homo sapiens, 10 μM compound, Method 1 (10× compound prepared in assay medium, added to plated cells), read-out: inhibiton (%) at 10 μM
# Outline: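 HeLa cells carrying doxycycline-inducible NICD and a CSL-driven beta-lactamase reporter, 10^3 cells/well, were treated with compound plus doxycycline for 16-20 h at 37 °C. CCF4-AM substrate was loaded for 4 h at room temperature; background-subtracted blue (460 nm)/green (530 nm) emission ratio taken per well.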
row,Structure (SMILES),inhibition at 10 µM
1,"CC(C)N1CC2N(C(=O)OCc3cccc4ccccc34)O[C@H](Cc3ccccc3)C(=O)N2[C@@H](Cc2ccc(O)cc2)C1=O (stereo partly drawn) [Compound I-17, (3R,6S)-naphthalen-1-ylmethyl 3-benzyl-6-(4-hydroxybenzyl)-8-isopropyl-4,7-dioxohexahydropyrazino[2,1-c][1,2,4]oxadiazine-1(6H)-carboxylate]",88%
2,"CC(C)C[C@H]1ON(C(=O)OCc2cccc3ccccc23)C2CN(C(C)C)C(=O)[C@H](Cc3ccc(O)cc3)N2C1=O (stereo partly drawn) [Compound I-14, (3R,6S)-naphthalen-1-ylmethyl 6-(4-hydroxybenzyl)-3-isobutyl-8-isopropyl-4,7-dioxohexahydropyrazino[2,1-c][1,2,4]oxadiazine-1(6H)-carboxylate]",64.8%
3,"CC(C)[C@H]1ON(C(=O)OCC2CCCCC2)C2CN(Cc3ccccc3)C(=O)[C@H](Cc3ccc(O)cc3)N2C1=O (stereo partly drawn) [Compound I-7, (3R,6S)-cyclohexylmethyl 8-benzyl-6-(4-hydroxybenzyl)-3-isopropyl-4,7-dioxohexahydropyrazino[2,1-c][1,2,4]oxadiazine-1(6H)-carboxylate]",55.5%

# Same assay, conditions: Homo sapiens, 10 μM compound, Method 2 (40 nL of 1000× compound added to plate with Echo), read-out: inhibiton (%) at 10 μM
row,Structure (SMILES),inhibition at 10 µM
1,"CC(C)C[C@H]1ON(C(=O)NCCC(c2ccccc2)c2ccccc2)C2CN(CCC(c3ccccc3)c3ccccc3)C(=O)[C@H](CCC(N)=O)N2C1=O (stereo partly drawn) [Compound I-56, (3R,6S)-6-(3-amino-3-oxopropyl)-N,8-bis(3,3-diphenylpropyl)-3-isobutyl-4,7-dioxohexahydropyrazino[2,1-c][1,2,4]oxadiazine-1(6H)-carboxamide]",53%
2,"CC(C)CCNC(=O)[C@H](Cc1ccc(O)cc1)N1CC2N(C(=O)OCCC(C)C)O[C@H](CC(C)C)C(=O)N2[C@@H](Cc2ccc(O)cc2)C1=O (stereo partly drawn) [Compound I-94, isopentyl (3R,6S)-6-(4-hydroxybenzyl)-8-((S)-3-(4-hydroxyphenyl)-1-(isopentylamino)-1-oxopropan-2-yl)-3-isobutyl-4,7-dioxohexahydropyrazino[2,1-c][1,2,4]oxadiazine-1(6H)-carboxylate]",57.8%
3,"NC(=O)C[C@H]1C(=O)N(CCc2cccc3ccccc23)CC2N(C(=O)OCC3CCCCC3)O[C@H](Cc3ccc(O)cc3)C(=O)N21 (stereo partly drawn) [Compound I-49, (3R,6S)-cyclohexylmethyl 6-(2-amino-2-oxoethyl)-3-(4-hydroxybenzyl)-8-(2-(naphthalen-1-yl)ethyl)-4,7-dioxohexahydropyrazino[2,1-c][1,2,4]oxadiazine-1(6H)-carboxylate]",92.6%
4,"CCCCCC[C@H]1C(=O)N(C2CCN(C)CC2)C[C@@H]2N(CCCc3ccccc3)O[C@H](CC(C)C)C(=O)N21 [Compound I-142, (3R,6S,9aS)-6-hexyl-3-isobutyl-8-(1-methylpiperidin-4-yl)-1-(3-phenylpropyl) tetrahydropyrazino [2,1-c][1,2,4]oxadiazine-4,7(3H,6H)-dione]",113%
5,"CCCC[C@@H](C(=O)NCCc1ccccc1)N1CC2N(C(=O)OCCc3ccc(O)cc3)O[C@H](Cc3ccc(O)cc3)C(=O)N2[C@@H](Cc2ccc(O)cc2)C1=O (stereo partly drawn) [Compound I-119, 4-hydroxyphenethyl (3R,6S)-3,6-bis(4-hydroxybenzyl)-4,7-dioxo-8-((S)-1-oxo-1-(phenethylamino)hexan-2-yl)hexahydropyrazino[2,1-c][1,2,4]oxadiazine-1(6H)-carboxylate]",55.7%
6,"CC(C)C[C@H]1C(=O)N(CCc2ccc(O)cc2)CC2N(C(=O)OCCc3ccc(O)cc3)O[C@H](Cc3ccc(O)cc3)C(=O)N21 (stereo partly drawn) [Compound I-41, (3R,6S)-4-hydroxyphenethyl 3-(4-hydroxybenzyl)-8-(4-hydroxyphenethyl)-6-isobutyl-4,7-dioxohexahydropyrazino[2,1-c][1,2,4]oxadiazine-1(6H)-carboxylate]",59.3%
7,"CCCCCOC(=O)N1O[C@H](Cc2ccc(O)cc2)C(=O)N2C1CN([C@@H](Cc1ccc(O)cc1)C(=O)NCCc1ccccc1)C(=O)[C@@H]2Cc1ccc(O)cc1 (stereo partly drawn) [Compound I-118, pentyl (3R,6S)-3,6-bis(4-hydroxybenzyl)-8-((S)-3-(4-hydroxyphenyl)-1-oxo-1-(phenethylamino)propan-2-yl)-4,7-dioxohexahydropyrazino[2,1-c][1,2,4]oxadiazine-1(6H)-carboxylate]",63.3%
